Assays:
Format in all cases: cell-based
Proteus vulgaris = assay: MIC against Gram-negative bacteria: Proteus vulgaris; conditions: Proteus vulgaris, 5×10^5 CFU/mL
Outline: (§1)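 Inocula prepared by growing LB cultures at 37° C to 0.5 McFarland, centrifuging at 4000×g, and resuspending in fresh medium. Final density 5×10^5 CFU/mL per well with two-fold dilutions of purified EGF domain protein; shaking incubation at 37° C.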

Klebsiella pneumonia = assay: MIC against Gram-negative bacteria: Klebsiella pneumonia; conditions: Klebsiella pneumonia, 5×10^5 CFU/mL
Outline: as §1

Moraxella catarrhalis = assay: MIC against Gram-negative bacteria: Moraxella catarrhalis; conditions: Moraxella catarrhalis, 5×10^5 CFU/mL
Outline: as §1

Proteus mirabilis = assay: MIC against Gram-negative bacteria: Proteus mirabilis; conditions: Proteus mirabilis, 5×10^5 CFU/mL
Outline: as §1

Aeromonas hydrophila = assay: MIC against Gram-negative bacteria: Aeromonas hydrophila; conditions: Aeromonas hydrophila, 5×10^5 CFU/mL
Outline: as §1

Pseudomonas aeruginosa = assay: MIC against Gram-negative bacteria: Pseudomonas aeruginosa; conditions: Pseudomonas aeruginosa, 5×10^5 CFU/mL
Outline: as §1

E. coli DH5α = assay: Antibacterial activity: MIC and growth curve against E. coli DH5α in 96-well plate; conditions: minimal inhibitory concentration against E. coli DH5α; 96-well plate, 5×10^5 CFU/mL, 37° C., judged after 8 h
Outline: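 Log-phase bacteria (OD600 ~0.5) resuspended in LB at 5×10^5 CFU/mL, exposed to recombinant protein at 50, 25, 12.5 μg/mL final in triplicate, 37 °C shaking at 175 rpm. OD600 read every 30 min; MIC is lowest concentration showing no growth.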

Enterobacter cloacae = assay: MIC against Gram-negative bacteria: Enterobacter cloacae; conditions: Enterobacter cloacae, 5×10^5 CFU/mL
Outline: as §1

Citrobacter diversus = assay: MIC against Gram-negative bacteria: Citrobacter diversus; conditions: Citrobacter diversus, 5×10^5 CFU/mL
Outline: as §1

E. coli BL21 = assay: MIC against Gram-negative bacteria: E. coli BL21; conditions: E. coli BL21, 5×10^5 CFU/mL
Outline: as §1

Serratia marcescens = assay: MIC against Gram-negative bacteria: Serratia marcescens; conditions: Serratia marcescens, 5×10^5 CFU/mL
Outline: as §1

Row | Substance | MIC against P. vulgaris (Proteus vulgaris; 96-well plate, 37° C., 10 h) [µg/mL] | MIC against K. pneumonia (Klebsiella pneumonia; 96-well plate, 37° C., 10 h) [µg/mL] | MIC against M. catarrhalis (Moraxella catarrhalis; 96-well plate, 37° C., 10 h) [µg/mL] | MIC against P. mirabilis (Proteus mirabilis; 96-well plate, 37° C., 10 h) [µg/mL] | MIC against A. hydrophila (Aeromonas hydrophila; 96-well plate, 37° C., 10 h) [µg/mL] | MIC against P. aeruginosa (Pseudomonas aeruginosa; 96-well plate, 37° C., 10 h) [µg/mL] | MIC (E. coli DH5α) [µg/mL] | MIC against E. cloacae (Enterobacter cloacae; 96-well plate, 37° C., 10 h) [µg/mL] | MIC against C. diversus (Citrobacter diversus; 96-well plate, 37° C., 10 h) [µg/mL] | MIC against E. coli BL21 (E. coli BL21; 96-well plate, 37° C., 10 h) [µg/mL] | MIC against S. marcescens (Serratia marcescens; 96-well plate, 37° C., 10 h) [µg/mL] | also measured
1 | PRT1329 (LPAVCTPPCSAHATCKENNTCECNLDYEGDGITCT; listed as Homo sapiens) | 25 | 50 | 12.5 | 25 | 50 | 12.5 | 12.5 | 12.5 | 25 | 50 | 25 | 
2 | PRT1330 (VVDFCKQDNGGCAKVARCSQKGTKVSCSCQKGYKGDGHSCT; listed as Homo sapiens) | 25 | 12.5 | 25 | 12.5 | 12.5 | 12.5 | 12.5 | 50 | 50 | 12.5 | 50 | 
3 | PRT1331 (EIDPCADGLNGGCHEHATCKMTGPGKHKCECKSHYVGDGLNCE; listed as Homo sapiens) | 12.5 | 12.5 | 50 | 25 | 12.5 | 25 | 25 | 50 | 25 | 50 | 25 | 
4 | PRT1332 (FGPSCSSVCNCVHGVCNSGLDGDGTCECYSAYTGPKCD; listed as Homo sapiens) | 12.5 | 25 | 12.5 | 25 | 50 | 50 | 50 | 12.5 | 25 | 12.5 | 25 | 
5 | PRT1333 (PIPECAALLCPENSRCSPSTEDENKLECKCLPNYRGDGKYCD; listed as Homo sapiens) | 25 | 25 | 25 | 12.5 | 25 | 25 | 25 | 12.5 | 12.5 | 12.5 | 12.5 | 
6 | PRT1334 (PINPCLRKICHPHAHCTYLGPNRHSCTCQEGYRGDGQVCL; listed as Homo sapiens) | 25 | 12.5 | 25 | 100 | 12.5 | 50 | 12.5 | 50 | 50 | 12.5 | 25 | 
7 | PRT1335 (MTDICKSDNPCHRNANCTTVAPGRTECICQKGYVGDGLTCY; listed as Homo sapiens) | 12.5 | 12.5 | 50 | 25 | 12.5 | 50 | 50 | 50 | 25 | 12.5 | 50 | 
8 | PRT1336 (DCNQCPGGFSNPCSGNGQCADSLGGNGTCICEEGFQGSQCQ; listed as Homo sapiens) | 12.5 | 50 | 12.5 | 50 | 12.5 | 12.5 | 12.5 | 25 | 50 | 50 | 50 | 
9 | PRT1337 (QTSACGPYVQFCHIHATCEYSNGTASCICKAGYEGDGTLCS; listed as Homo sapiens) | 50 | 25 | 12.5 | 25 | 25 | 12.5 | 12.5 | 50 | 25 | 50 | 12.5 | 
10 | PRT1338 (EMDPCTGLTPGGCSRNAECIKTGTGTHTCVCQQGWTGNGRDCS; listed as Homo sapiens) | 12.5 | 25 | 12.5 | 12.5 | 12.5 | 12.5 | 50 | 50 | 12.5 | 25 | 25 | 
11 | PRT1339 (EINNCLLPSAGGCHDNASCLYVGPGQNECECKKGFRGNGIDCE; listed as Homo sapiens) | 50 | 25 | 12.5 | 25 | 50 | 12.5 | 25 | 12.5 | 25 | 12.5 | 25 | 
12 | PRT1343 (VFHECFFNPCHNSGTCQQLGRGYVCLCPLGYTGLKCE; listed as Homo sapiens) | 25 | 25 | 25 | 12.5 | 12.5 | 50 | 12.5 | 25 | 50 | 25 | 50 | 
13 | PRT1344 (DIDECSPLPCLNNGVCKDLVGEFICECPSGYTGQRCE; listed as Homo sapiens) |  |  |  |  |  |  | 12.5 |  |  |  |  | MIC against P. vulgaris (Proteus vulgaris; 10 h cultivation at 37° C.): 50 µg/mL; MIC against K. pneumonia (Klebsiella pneumonia; 10 h cultivation at 37° C.): 12.5 µg/mL; MIC against M. catarrhalis (Moraxella catarrhalis; 10 h cultivation at 37° C.): 50 µg/mL; MIC against P. mirabilis (Proteus mirabilis; 10 h cultivation at 37° C.): 12.5 µg/mL; MIC against A. hydrophila (Aeromonas hydrophila; 10 h cultivation at 37° C.): 50 µg/mL; MIC against P. aeruginosa (Pseudomonas aeruginosa; 10 h cultivation at 37° C.): 25 µg/mL; MIC against E. cloacae (Enterobacter cloacae; 10 h cultivation at 37° C.): 25 µg/mL; MIC against C. diversus (Citrobacter diversus; 10 h cultivation at 37° C.): 12.5 µg/mL; MIC against E. coli BL21 (E. coli BL21; 10 h cultivation at 37° C.): 50 µg/mL; MIC against S. marcescens (Serratia marcescens; 10 h cultivation at 37° C.): 25 µg/mL
14 | PRT1345 (NINECSSSPCLNKGICVDGVAGYRCTCVKGFVGLHCE; listed as Homo sapiens) |  |  |  |  |  |  | 12.5 |  |  |  |  | MIC against P. vulgaris (Proteus vulgaris; 10 h cultivation at 37° C.): 25 µg/mL; MIC against K. pneumonia (Klebsiella pneumonia; 10 h cultivation at 37° C.): 25 µg/mL; MIC against M. catarrhalis (Moraxella catarrhalis; 10 h cultivation at 37° C.): 25 µg/mL; MIC against P. mirabilis (Proteus mirabilis; 10 h cultivation at 37° C.): 12.5 µg/mL; MIC against A. hydrophila (Aeromonas hydrophila; 10 h cultivation at 37° C.): 25 µg/mL; MIC against P. aeruginosa (Pseudomonas aeruginosa; 10 h cultivation at 37° C.): 50 µg/mL; MIC against E. cloacae (Enterobacter cloacae; 10 h cultivation at 37° C.): 12.5 µg/mL; MIC against C. diversus (Citrobacter diversus; 10 h cultivation at 37° C.): 50 µg/mL; MIC against E. coli BL21 (E. coli BL21; 10 h cultivation at 37° C.): 25 µg/mL; MIC against S. marcescens (Serratia marcescens; 10 h cultivation at 37° C.): 50 µg/mL

From patent US9833497B2, “Human originated EGF domain proteins and use of the same” (CHENGDU SOURCEBIO LIMITED-LIABILITY COMPANY, priority 2013, dated 2017)
